Laboratory results reported in publication PMC5164911, “Comparative Analysis of the Interaction between Different Flavonoids and PDIA3” (Oxidative Medicine and Cellular Longevity, 2016).
Like-named read-outs stand apart in the source and are kept apart here.

What was measured:
[1] = biological target: T1, PDIA3 (Homo sapiens, UniProt P30101); test: Disulfide reductase activity with DiE-GSSG fluorogenic probe; assay type: biochemical; settings: DiE-GSSG substrate; for Inhibition of disulfide reductase (redox) activity: 20 μM flavonoid (Figure 7)
T1 construct: made in house; host or cells: E. coli BL21 (vector pET21)
T1 sequence (P30101 25-505): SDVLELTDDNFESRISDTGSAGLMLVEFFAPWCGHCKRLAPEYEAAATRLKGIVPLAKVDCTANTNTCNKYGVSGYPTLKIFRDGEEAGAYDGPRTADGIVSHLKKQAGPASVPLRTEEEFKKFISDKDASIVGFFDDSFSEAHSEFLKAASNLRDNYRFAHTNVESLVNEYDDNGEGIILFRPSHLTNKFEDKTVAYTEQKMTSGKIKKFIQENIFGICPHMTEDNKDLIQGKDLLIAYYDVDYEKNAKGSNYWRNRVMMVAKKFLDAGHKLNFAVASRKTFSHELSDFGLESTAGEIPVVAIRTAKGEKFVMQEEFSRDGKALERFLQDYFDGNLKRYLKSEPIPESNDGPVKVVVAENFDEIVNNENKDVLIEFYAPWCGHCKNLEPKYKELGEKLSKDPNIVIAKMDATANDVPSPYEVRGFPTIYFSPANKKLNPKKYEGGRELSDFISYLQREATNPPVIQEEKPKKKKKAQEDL
Protocol: Disulfide reductase activity of ERp57 was monitored by sensitive fluorescent assay using dieosin glutathione disulfide (DiE-GSSG) as fluorogenic probe. DiE-GSSG was synthesized by the reaction of eosin isothiocyanate with oxidized glutathione (GSSG) according to the method of Raturi and Mutus with some modifications. DiE-GSSG concentration was determined spectrophotometrically (ℇ 525 = 88,000 M^-1 cm^−1). Disulfide reductase activity was assayed in a reaction buffer containing 2 mM EDTA, 150 nM DiE-GSSG, and 5 μM DTT in PBS. A 20 μl aliquot of a stock solution of PDIA3 (1 μM) was added to the reaction mixture and DiE-GSSG reduction was monitored at 545 nm with excitation at 520 nm, at 25°C with continuous stirring. Reductase activity was calculated as the initial velocity in fluorescence increase. To test the effect of flavonoids on PDIA3 activity, the protein stock solution was previously incubated for 15 minutes at room temperature with different concentrations of each flavonoid and then a 20 μl aliquot subjected to assay in a reaction buffer containing the same concentration of the flavonoid.
Fluorescence quenching constant (K SV) values were given as means ± standard deviation and values of disulfide reductase activity were expressed in % of control sample ± relative standard deviation. All measurements were performed at least three times. Dunnett's test was used to compare the obtained reductase activity data with the activity of the untreated protein and a p value of <0.01 was considered as statistically significant.

[2] = biological target: T1, PDIA3; test: Differential scanning fluorimetry (thermal stability, SYPRO Orange); assay type: binding
Protocol: Protein stability was tested by the fluorescence-based thermal stability assay or differential scanning fluorimetry (DSF) developed by Pantoliano and coworkers. DSF records the fluorescence emission signal from the binding of a dye (SYPRO orange) to the exposed hydrophobic patches upon protein unfolding. Fluorescence measurements were performed using a CFX96 Connect RT-PCR instrument (BioRad). 18 μl aliquots of protein solution (1 μM), freshly diluted in Tris Buffered saline (50 mM TrisHCl, pH 8.0, 150 mM NaCl) containing 0.1 mM DTT, 0.2 mM EDTA, and 1 : 1000 dilution of SYPRO Orange (50 mM stock solution in DMSO), were distributed in a 96-well plate. Sample wells were addition of increasing concentration (up to 50 μM) of individual flavonoid by adding 2 μl of 10-fold concentrated stock solutions freshly prepared. As control, the protein solution was added with 2 μl of the dilution buffer. A melting point analysis was recorded increasing the temperature from 20 to 95°C with an increment of 0.5°C and reading, at each temperature, the fluorescence in fluorescence resonance energy transfer mode (FRET). Each measure was the average of three sample wells reading and each DSF experiment was repeated at least three times. To calculate T m values, DSF data from the melting curve were exported and fitted to Boltzman equation using GraphPad software. Effect of flavonoids was evaluated comparing the T m values in presence and absence of each molecule.

[3] = biological target: T1, PDIA3; test: Fluorescence quenching titration of PDIA3 intrinsic fluorescence; assay type: binding; settings: for Stern-Volmer constant (K SV): 0.5∗10^−6 M PDIA3 in reduced conditions, pH 7.4, 25°C, flavonoid 0 to 10∗10^−6 M, mean and standard deviation; for bimolecular quenching rate constant (K q): K SV = K q τ0 with τ0 of the order of 10^−8 s; for binding constant (K b): equation of Bi et al., reiterative calculation of Sun et al.
Protocol: Quantitative analysis of the interaction between individual flavonoids and PDIA3 was performed by fluorimetric titration. […] Briefly, solution of PDIA3 (0.5 μM) or a and a′ domains (1 μM) in phosphate buffered saline (PBS) containing DTT 0.1 mM and EDTA 0.2 mM were titrated in quartz cuvette by stepwise additions, at 5 min time intervals, of individual flavonoid solution (1 mM in PBS/ethanol 50 : 50 v/v freshly prepared from a 20 mM stock solution in DMSO). […] To minimize the inner-filter effect we limited the highest concentration reached in the titration test up to 10 μM. All experiments were carried out at 25°C. Each spectrum was the mean of three repeated scans. Fluorescence spectra of appropriate blanks (flavonoids without proteins) were recorded under the same experimental conditions and subtracted from the corresponding flavonoid-protein system to correct the fluorescence background.
Quenching analysis was performed on PDIA3 (0.5 μM), in the reduced form, by adding stepwise increasing concentration of each molecule and recording the protein fluorescence spectra. For some flavonoids the analysis was extended to isolate a′ domain (1 μM), always in the reduced form. […] For each ligand molecule the Stern-Volmer quenching constant was obtained by linear regression of plots of F 0/F versus [L].
The Stern-Volmer quenching constant may be expressed as K SV = K q τ 0, where K q is the quencher rate coefficient and τ 0 is the average lifetime of the emissive excited state of the protein in the absence of the quencher.
The number of binding sites (n) and the binding constant (K b) were obtained by plotting log((F 0 − F)/F) versus log(1/([L t] − n(F 0 − F)[P t]/F 0)) using the reiterative calculation process described by Sun et al., assuming a similar affinity for each binding site.

[4] = biological target: T1, PDIA3; design: method as in Trnková et al. [30]; settings: Figure 8, unit inferred; ref Trnková et al. [30]; read-out: Dissociation constant (Kd); cited from earlier work
[5] = biological target: T1, PDIA3; settings: cited from earlier work
[6] = biological target: T1, PDIA3; settings: cited from earlier work; remark: listed apart in the source
[7] = biological target: T1, PDIA3; test: DNA binding activity by EMSA; assay type: biochemical; settings: flavonoid 0 to 50 μM
Protocol: EMSA assay was performed using a 79-bp […] obtained by PCR as previously described. Amplified DNA was end-labeled by using 5-fluorescein-modified primers. 10 ng of DNA fragment was incubated with 1 μg of PDIA3 or a′ domain, in presence of increasing concentration of flavonoids (from 0 to 50 μM). Controls were performed using DNA alone and in the presence of each flavonoid. All tests were performed in 20 μl mixtures containing 20 mM Tris-HCl, pH 7.5, 50 mM NaCl, and 10% (v/v) glycerol. Samples were incubated for 1 hour at 25°C and then resolved on 5% polyacrylamide gels in 0,25% TBE buffer (22.5 mM Tris-borate, 5 mM EDTA, pH 8.3) at 150 V. Gel images were recorded using a ChemiDoc MP Imaging System (BioRad) equipped with an epi-blue excitation lamp and a 520 nm emission filter.

[8] = biological target: PDIA3; design: method as in PMID 24530445; settings: cited from earlier work
[9] = K d = 1/K b, reduced PDIA3, pH 7.4, 25°C, read-out: dissociation constant (K d)

Oc1cc(O)c2cc(O)c(-c3ccc(O)c(O)c3)[o+]c2c1 [Cyanidin, cyanidin]
Inhibition of disulfide reductase (redox) activity [1]: approximately 20%
Effect on PDIA3 stability (T m) ([2]; flavonoid up to 50 μM, mainly at the highest concentration): similar, but less pronounced, effect
Stern-Volmer constant (K SV) [3]: 29761 ± 635 M⁻¹
bimolecular quenching rate constant (K q) ([3]; reduced PDIA3, pH 7.4, 25°C): 2.98e+12 M⁻¹ s⁻¹
Kd [3, 9]: 34.2 µM
binding constant (K b) ([3]; reduced PDIA3, pH 7.4, 25°C): 29300 M⁻¹

O=C(OC1Cc2c(O)cc(O)cc2OC1c1cc(O)c(O)c(O)c1)c1cc(O)c(O)c(O)c1 (stereo not shown) [Epigallocatechin gallate, epigallocatechin gallate]
Kd [4]: 45.8 µM
Effect on DNA binding ([5]; ref Trnková et al. [30]): Inhibition
Inhibition of redox activity (%) ([6]; Figure 8, ref Trnková et al. [30]): 21%

O=c1c(O)c(-c2ccc(O)c(O)c2)oc2cc(O)cc(O)c12 [Quercetin, quercetin]
Inhibition of disulfide reductase (redox) activity [1]: 18%
Inhibition of disulfide reductase (redox) activity ([1]; listed as quercetin): approximately 20%
Effect on disulfide reductase activity (in words) [1]: some inhibitory effect
Increase in melting temperature (T m) of PDIA3 ([2]; 50 μM flavonoid, reduced PDIA3 1 μM): increased more than three degrees
Stern-Volmer constant (K SV) [3]: 46226 ± 1406 M⁻¹
Kd ([3]; Figure 8, no unit printed in the picture, read-out: Dissociation constant (Kd)): 25.6 µM
bimolecular quenching rate constant (K q) ([3]; reduced PDIA3, pH 7.4, 25°C): 4.62e+12 M⁻¹ s⁻¹
Kd [3, 9]: 25.6 µM
binding constant (K b) ([3]; reduced PDIA3, pH 7.4, 25°C): 39000 M⁻¹
Effect on DNA binding activity of PDIA3 [7]: None

COc1cc(C2Oc3cc([C@H]4Oc5cc(O)cc(O)c5C(=O)[C@@H]4O)ccc3OC2CO)ccc1O (stereo partly shown) [silibinin]
Effect on DNA binding capability of PDIA3 [5]: no effect
Effect on redox activity of PDIA3 [6]: no effect
dissociation constant [8]: within micromolar range
